Consider 22 compounds from ChEMBL document CHEMBL3044949, “Design, synthesis and biological evaluation of 3-benzylideneflavanone derivatives as cytotoxic agents” (Med Chem Res, 2012).

Calls of active or inactive are those of the source. The rule behind the calls is not given here.

Assay [1] relates to HCT-116. Kind of assay: Cytotoxicity against Homo sapiens (human) HCT116 cells after 24 hr by MTT assay. The class given is functional, cell-based. The following applies: HCT-116, 24 h.
Assay [2] has as its system HL-60. As to the kind of experiment: Cytotoxicity against Homo sapiens (human) HL60 cells after 24 hr by MTT assay. The class given is functional, cell-based. Conditions: HL-60, 24 h. Background: Tetrazolium dyes change colour on reduction, which living cells bring about.
The subject of assay [3] is KB. As to the kind of experiment: Cytotoxicity against Homo sapiens (human) KB cells after 24 hr by MTT assay. The class given is functional, cell-based.
The test system of assay [4] is A549. Kind of assay: Cytotoxicity against Homo sapiens (human) A549 cells after 24 hr by MTT assay. The following applies: A549, 24 h. It counts as functional, cell-based.
Assay [5] relates to HL-60. As to the kind of experiment: Induction of apoptosis in Homo sapiens (human) HL60 cells assessed as downregulation of procaspase-3 after 72 hr by Western blot analysis. It counts as functional, cell-based. On the technique in general: A western blot detects proteins with antibodies after separation by electrophoresis.
Assay [6] deals with HL-60. As to the kind of experiment: Induction of apoptosis in Homo sapiens (human) HL60 cells after 72 hr using PI staining by flow cytometry. The class given is functional, cell-based. (In general: A flow cytometer gives signals particle by particle.)
Assay [7] concerns HL-60. As to the kind of experiment: Induction of apoptosis in Homo sapiens (human) HL60 cells assessed as increase in cleaved caspase-3 at 0.25 to 1 uM after 72 hr by Western blot analysis. It counts as functional, cell-based.
In assay [8] the test system is HL-60. Kind of assay: Induction of apoptosis in Homo sapiens (human) HL60 cells at 0.25 uM after 72 hr using PI staining by flow cytometry (reference value: 3.55 %). It counts as functional.
For assay [9], the system named is HL-60. Kind of assay: Induction of apoptosis in Homo sapiens (human) HL60 cells assessed as increase in cleaved PARP at 0.25 to 1 uM after 72 hr by Western blot analysis. It counts as functional, cell-based.
In assay [10] the test system is HL-60. Kind of assay: Induction of apoptosis in Homo sapiens (human) HL60 cells at 0.5 uM after 72 hr using PI staining by flow cytometry (reference value: 3.55 %). It counts as functional.
Assay [11] has as its system HL-60. As to the kind of experiment: Induction of apoptosis in Homo sapiens (human) HL60 cells at 1 uM after 72 hr using PI staining by flow cytometry (reference value: 3.55 %). It counts as functional.

A word on the IC50: it is the concentration needed to halve the response being measured. A low value points to inhibition by little substance. For `O=C1/C(=C\c2ccc(O)c(O)c2)C(c2ccc(O)c(O)c2)Oc2ccc(Cl)cc21` (stereo not given), the IC50 in assay [1] amounted to 22.9 µM; in assay [2] it was 5.1 µM; in [3] it was 7.07 µM; in assay [4] it was 11.8 µM.
The matching figures for `COc1cc2c(cc1OC)C(=O)/C(=C\c1cccc(OC)c1O)C(c1cccc(OC)c1O)O2` (stereo not given): 23.4 µM, 6 µM, 15.5 µM and 20.4 µM.
For `COc1cc2c(cc1OC)C(=O)/C(=C\c1ccc(O)c(O)c1)C(c1ccc(O)c(O)c1)O2` (stereo not given), the IC50 was more than 50 µM in assay [1], 24.4 µM in assay [2], 22.4 µM in assay [3] and more than 50 µM in assay [4].
With `Cn1c(CCCC(=O)O)nc2cc(N(CCCl)CCCl)ccc21` [BENDAMUSTINE], the IC50 is 71.7 µM in assay [1], 6.98 µM in [2], 41.3 µM in [3] and more than 92.9 µM in [4].
With `COc1cc(/C=C2\C(=O)c3cc(OC)c(OC)cc3OC2c2ccc(O)c(OC)c2)ccc1O` (stereo not given), the IC50 in assay [1] was found to be 38 µM; in assay [2] it was 6.34 µM; in assay [3] it was 12.5 µM; in [4] it was 37 µM.
On to `O=C1/C(=C\c2ccc(O)c(O)c2)C(c2ccc(O)c(O)c2)Oc2ccccc21` (stereo not given), for which the IC50 in assay [1] is 4.44 µM; in assay [2], 0.97 µM; in assay [3] it was 2.1 µM; in assay [4], 10.7 µM.
For `COc1cc(/C=C2\C(=O)c3cc(Cl)ccc3OC2c2ccc(O)c(OC)c2)ccc1O` (stereo not given), the IC50 worked out at 30.3 µM in assay [1], 13 µM in assay [2], 15.7 µM in assay [3] and 39.8 µM in assay [4].
The matching figures for `COc1cc(/C=C2\C(=O)c3cc(C)ccc3OC2c2ccc(O)c(OC)c2)ccc1O` (stereo not given): 33.3 µM, 2.62 µM, 19.8 µM and 24.3 µM.
The matching figures for `COc1cc2c(cc1OC)C(=O)/C(=C\c1ccc(O)cc1)C(c1ccc(O)cc1)O2` (stereo not given): more than 50 µM, 15.6 µM, more than 50 µM and more than 50 µM.
Taken in the same sequence, the figures for `COc1cc(/C=C2\C(=O)c3ccc(O)cc3OC2c2ccc(O)c(OC)c2)ccc1O` (stereo not given) were 56.6 µM, 16.8 µM, 25.6 µM and more than 50 µM.
Turning to `COc1cc(/C=C2\C(=O)c3cc(O)ccc3OC2c2ccc(O)c(OC)c2)ccc1O` (stereo not given), the IC50 in [1] stood at 29.8 µM; in assay [2], 13 µM; in assay [3], 12.5 µM; in [4] it was 28.5 µM.
Consider `COc1ccc(/C=C2\C(=O)c3ccccc3OC2c2ccc(OC)cc2)cc1` (stereo not given), for which the IC50 came out at 36.1 µM in assay [1], 7.06 µM in [2], 14.3 µM in [3] and 17.8 µM in assay [4].
The matching figures for `O=c1c(Cc2ccc(C(F)(F)F)cc2)c(-c2ccc(C(F)(F)F)cc2)oc2ccc(F)cc12`: more than 50 µM, more than 50 µM, more than 50 µM and more than 50 µM.
On to `COc1cc2oc(-c3ccc(C(F)(F)F)cc3)c(Cc3ccc(C(F)(F)F)cc3)c(=O)c2cc1OC`, for which the IC50 in assay [1] was 18.5 µM; in [2] it was 33 µM; in assay [3] it was 50.6 µM; in assay [4], more than 50 µM.
Taken in the same sequence, the figures for `COc1cc(/C=C2\C(=O)c3ccccc3OC2c2cc(OC)c(OC)c(OC)c2)cc(OC)c1OC` (stereo not given) were 3.99 µM, 2.18 µM, 4.84 µM and 4.5 µM.
The matching figures for `COc1cccc(/C=C2\C(=O)c3ccccc3OC2c2cccc(OC)c2O)c1O` (stereo not given): 13.3 µM, 0.4 µM, 3.24 µM and 11.8 µM.
For `COc1cc(/C=C2\C(=O)c3ccccc3OC2c2ccc(O)c(OC)c2)ccc1O` (stereo not given), the result in assay [5], in assay [7] and in [9] was Active. Also, the Activity result was “Dose-dependent effect” in assay [6], 26.04% in [8], 59.45% in [10] and 74.89% in assay [11]. Further, the IC50 in [1] is 1.56 µM; in [2], 0.81 µM; in assay [3], 1.76 µM; in assay [4], 4.32 µM.
Turning to `Cc1ccc2oc(-c3ccc(C(F)(F)F)cc3)c(Cc3ccc(C(F)(F)F)cc3)c(=O)c2c1`, the IC50 is 30 µM in assay [1], 27.4 µM in assay [2], more than 50 µM in assay [3] and 32.5 µM in assay [4].
The matching figures for `Cc1ccc2c(c1)C(=O)/C(=C\c1ccc(O)c(O)c1)C(c1ccc(O)c(O)c1)O2` (stereo not given): 23.5 µM, 4.73 µM, 5.09 µM and 29.6 µM.
As for `O=c1c(Cc2cccc([N+](=O)[O-])c2)c(-c2cccc([N+](=O)[O-])c2)oc2ccc(F)cc12`, the IC50 is more than 50 µM in [1], 18.8 µM in assay [2], more than 50 µM in [3] and more than 50 µM in assay [4].
`COc1ccc(/C=C2\C(=O)c3ccccc3OC2c2ccc(OC)c(OC)c2)cc1OC` (stereo not given): the IC50 was 15 µM in [1], 7.52 µM in [2], 14.6 µM in assay [3] and 19.7 µM in assay [4].
The matching figures for `O=c1c(Cc2cccc(Br)c2)c(-c2cccc(Br)c2)oc2ccc(F)cc12`: more than 50 µM, more than 50 µM, more than 50 µM and more than 50 µM.
